In brackets after ≈: the same amount, converted by molar mass.
What was measured:
Assay type in all cases: cell-based
Aspergillus flavus [1] = test: MIC, YAG medium; settings: 24 h at 35° C, MIC banded into grades; for MIC: Aspergillus flavus, 24 h, read-out: MIC grade, A. flavus
Outline: (§1)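 Spores from 5-day Sabouraud agar cultures were suspended in YAG medium (1% glucose, 1% ammonium chloride, 0.5% yeast extract) at final inocula of 1−2×10^4 cfu/mL against doubling dilutions of compound (50-0.05 mg/L; 0.5-0.0005 mg/L on repeat). Plates were incubated 24 h at 35° C. MIC was the lowest concentration giving >70% growth inhibition by OD485 versus drug-free control.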

Aspergillus niger [2] = test: MIC, YAG medium; settings: 24 h at 35° C, MIC banded into grades; for MIC: Aspergillus niger, read-out: MIC grade, A. niger
Outline: as §1

[3] = test system: Aspergillus fumigatus AF293; test: MIC, YAG medium; settings: 24 h at 35° C, MIC banded into grades; for MIC: Aspergillus fumigatus, read-out: MIC grade, A. fumigatus
Outline: as §1

[4] = test system: Aspergillus fumigatus AF210; test: MIC, YAG medium; settings: 24 h at 35° C, MIC banded into grades; for MIC: Aspergillus fumigatus, read-out: MIC grade, A. fumigatus 210
Outline: as §1

Aspergillus terreus AT4 [5] = test: MIC, YAG medium; settings: 24 h at 35° C, MIC banded into grades; for MIC: Aspergillus terreus, read-out: MIC grade, A. terreus
Outline: as §1

Aspergillus terreus AT49 [6] = test: MIC, YAG medium; settings: 24 h at 35° C, MIC banded into grades; for MIC: Aspergillus terreus, read-out: MIC grade, A. terreus 49
Outline: as §1

Aspergillus flavus [7] = test: MIC, RPMI medium; settings: MIC banded into grades; for MIC: Aspergillus flavus, read-out: MIC grade, A. flavus
Outline: (§2)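 Broth microdilution in RPMI with 2% glucose, 0.135 M MOPS pH 7.0; compounds as doubling dilutions, 50-0.05 mg/L, inoculum 1−2×10^4 cfu/mL. Incubated 24-48 h at 35° C; growth by OD 485 nm. MIC is lowest concentration giving >80% growth inhibition versus drug-free control.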

Aspergillus niger [8] = test: MIC, RPMI medium; settings: MIC banded into grades; for MIC: Aspergillus niger, read-out: MIC grade, A. niger
Outline: as §2

[9] = test system: Aspergillus fumigatus AF293; test: MIC, RPMI medium; settings: for MIC: Aspergillus fumigatus, AF293, MIC banded into grades, read-out: MIC grade, A. fumigatus
Outline: as §2

[10] = test system: Aspergillus fumigatus AF210; test: MIC, RPMI medium; settings: for MIC: Aspergillus fumigatus, AF210, MIC banded into grades, read-out: MIC grade, A. fumigatus 210
Outline: as §2

Aspergillus terreus AT4 [11] = test: MIC, RPMI medium; settings: for MIC: Aspergillus terreus, AT4, MIC banded into grades, read-out: MIC grade, A. terreus
Outline: as §2

Aspergillus terreus AT49 [12] = test: MIC, RPMI medium; settings: for MIC: Aspergillus terreus, AT49, MIC banded into grades, read-out: MIC grade, A. terreus 49
Outline: as §2

Row | SMILES | MIC (Aspergillus flavus [1]) [µg/mL] | MIC (Aspergillus niger [2]) [µg/mL] | MIC [3] [µg/mL] | MIC [4] [µg/mL] | MIC (Aspergillus terreus AT4 [5]) [µg/mL] | MIC (Aspergillus terreus AT49 [6]) [µg/mL] | MIC (Aspergillus flavus [7]) [µg/mL] | MIC (Aspergillus niger [8]) [µg/mL] | MIC [9] [µg/mL] | MIC [10] [µg/mL] | MIC (Aspergillus terreus AT4 [11]) [µg/mL] | MIC (Aspergillus terreus AT49 [12]) [µg/mL] | also measured
1 | COCCCCn1c(C)cc(-c2ccccc2)c1C(=O)C(=O)Nc1ccc(N2CCN(c3cc(C)cc(C)n3)CC2)cc1 [Example 142, N-{4-[4-(4,6-Dimethyl-pyridin-2-yl)-piperazin-1-yl]-phenyl}-2-[1-(4-methoxy-butyl)-5-methy-3-phenyl-1H-pyrrol-2-yl]-2-oxo-acetamide] |  |  |  |  |  |  |  |  |  |  |  |  | MIC grade, A. flavus (Aspergillus flavus [1]): 3 (A grade of 3 represents an MIC of less than 1 mg/L); MIC grade, A. niger (Aspergillus niger [2]): 3 (A grade of 3 represents an MIC of less than 1 mg/L); MIC grade, A. fumigatus [3]: 3 (A grade of 3 represents an MIC of less than 1 mg/L); MIC grade, A. fumigatus 210 [4]: 3 (A grade of 3 represents an MIC of less than 1 mg/L); MIC grade, A. terreus (Aspergillus terreus AT4 [5]): 3 (A grade of 3 represents an MIC of less than 1 mg/L); MIC grade, A. terreus 49 (Aspergillus terreus AT49 [6]): 3 (A grade of 3 represents an MIC of less than 1 mg/L); MIC grade, A. flavus (Aspergillus flavus [7]): 3 (A grade of 3 represents an MIC of less than 1 mg/L); MIC grade, A. niger (Aspergillus niger [8]): 3 (A grade of 3 represents an MIC of less than 1 mg/L); MIC grade, A. fumigatus ([9]; MIC banded into grades): 3 (A grade of 3 represents an MIC of less than 1 mg/L); MIC grade, A. fumigatus 210 ([10]; MIC banded into grades): 3 (A grade of 3 represents an MIC of less than 1 mg/L); MIC grade, A. terreus (Aspergillus terreus AT4 [11]; MIC banded into grades): 3 (A grade of 3 represents an MIC of less than 1 mg/L); MIC grade, A. terreus 49 (Aspergillus terreus AT49 [12]; MIC banded into grades): 3 (A grade of 3 represents an MIC of less than 1 mg/L)
2 | Cc1cc(C)nc(N2CCN(c3ccc(NC(=O)C(=O)c4c(-c5ccccc5)cc(C)n4CCOC(C)C)cc3)CC2)c1 [Example 97, N-{4-[4-(4,6-Dimethyl-pyridin-2-yl)-piperazin-1-yl]-phenyl}-2-[1-(2-isopropoxy-ethyl)-5-methyl-3-phenyl-1H-pyrrol-2-yl]-2-oxo-acetamide] | 1 to 10 (≈ 1.72 to 17.2 µM) | 1 to 10 (≈ 1.72 to 17.2 µM) | 1 to 10 (≈ 1.72 to 17.2 µM) | < 1 | 1 to 10 (≈ 1.72 to 17.2 µM) | 1 to 10 (≈ 1.72 to 17.2 µM) | 1 to 10 (≈ 1.72 to 17.2 µM) | 1 to 10 (≈ 1.72 to 17.2 µM) | < 1 | 1 to 10 (≈ 1.72 to 17.2 µM) | 1 to 10 (≈ 1.72 to 17.2 µM) | 1 to 10 (≈ 1.72 to 17.2 µM) | 
3 | Cc1cc(-c2ccccc2)c(C(=O)C(=O)Nc2ccc(N3CCN(c4ccccn4)CC3)cc2)n1C [Example 38, 2-(1,5-Dimethyl-3-phenyl-1H-pyrrol-2-yl)-2-oxo-N-[4-(4-pyridin-2-yl-piperazin-1-yl)-phenyl]-acetamide] | < 1 | < 1 | < 1 | < 1 | < 1 | < 1 | < 1 | < 1 | < 1 | < 1 | < 1 | < 1 | 
4 | COCCn1c(C)cc(-c2ccccc2)c1C(=O)C(=O)Nc1ccc(-c2ncco2)cc1 [Example 149, 2-[1-(2-Methoxy-ethyl)-5-methyl-3-phenyl-1H-pyrrol-2-yl]-N-(4-oxazol-2-yl-phenyl)-2-oxo-acetamide] | < 1 | < 1 | < 1 | < 1 | < 1 | < 1 | > 10 | < 1 | 1 to 10 (≈ 2.33 to 23.3 µM) | 1 to 10 (≈ 2.33 to 23.3 µM) | 1 to 10 (≈ 2.33 to 23.3 µM) | 1 to 10 (≈ 2.33 to 23.3 µM) | 
5 | CCn1ccc2c(F)c(NC(=O)C(=O)c3c(-c4ccccc4)cc(C)n3C)ccc21 [Example 128, 2-(1,5-Dimethyl-3-phenyl-1H-pyrrol-2-yl)-N-(1-ethyl-4-fluoro-1H-indol-5-yl)-2-oxo-acetamide] | < 1 | < 1 | < 1 | < 1 | < 1 | < 1 | < 1 | < 1 | < 1 | < 1 | < 1 | < 1 | 
6 | Cc1cc(-c2ccccc2)c(C(=O)C(=O)Nc2ccc(N3CCCC3)nc2)n1C [Example 99, 2-(1,5-Dimethyl-3-phenyl-1H-pyrrol-2-yl)-2-oxo-N-(6-pyrrolidin-1-yl-pyridin-3-yl)-acetamide] | < 1 | 1 to 10 (≈ 2.57 to 25.7 µM) | 1 to 10 (≈ 2.57 to 25.7 µM) | < 1 | < 1 | < 1 | < 1 | < 1 | < 1 | 1 to 10 (≈ 2.57 to 25.7 µM) | < 1 | < 1 | 
7 | CCCNC(=O)C(=O)c1cc(-c2ccccc2)cn1CCOC [Example 121, 2-[1-(2-Methoxy-ethyl)-4-phenyl-1H-pyrrol-2-yl]-2-oxo-N-propyl-acetamide] | > 10 | > 10 | > 10 | 1 to 10 (≈ 3.18 to 31.8 µM) | 1 to 10 (≈ 3.18 to 31.8 µM) | 1 to 10 (≈ 3.18 to 31.8 µM) | > 10 | > 10 | > 10 | > 10 | > 10 | > 10 | 
8 | CCn1c(C)cc(-c2ccccc2)c1C(=O)C(=O)Nc1ccc(N2CCN(c3cc(C)cc(C)n3)CC2)cc1 [Example 34, N-{4-[4-(4,6-Dimethyl-pyridin-2-yl)-piperazin-1-yl]-phenyl}-2-(1-ethyl-5-methyl-3-phenyl-1H-pyrrol-2-yl)-2-oxo-acetamide] | < 1 | < 1 | < 1 | < 1 | < 1 | < 1 | < 1 | < 1 | < 1 | < 1 | < 1 | < 1 | 

Now from value to compound, other results behind:

Row | MIC (Aspergillus flavus [1]) [µg/mL] | MIC (Aspergillus niger [2]) [µg/mL] | MIC [3] [µg/mL] | MIC [4] [µg/mL] | MIC (Aspergillus terreus AT4 [5]) [µg/mL] | MIC (Aspergillus terreus AT49 [6]) [µg/mL] | MIC (Aspergillus flavus [7]) [µg/mL] | MIC (Aspergillus niger [8]) [µg/mL] | MIC [9] [µg/mL] | MIC [10] [µg/mL] | MIC (Aspergillus terreus AT4 [11]) [µg/mL] | MIC (Aspergillus terreus AT49 [12]) [µg/mL] | SMILES | also measured
9 | < 1 | < 1 | < 1 | < 1 | < 1 | < 1 | < 1 | < 1 | < 1 | < 1 | < 1 | < 1 | Cc1cc(-c2ccccc2)c(C(=O)C(=O)Nc2ccc(N3CCN(c4ccccn4)CC3)cc2F)n1C [Example 95, 2-(1,5-Dimethyl-3-phenyl-1H-pyrrol-2-yl)-N-[2-fluoro-4-(4-pyridin-2-yl-piperazin-1-yl)-phenyl]-2-oxo-acetamide] | 
10 | > 10 | > 10 | > 10 | > 10 | > 10 | > 10 | > 10 | > 10 | > 10 | > 10 | > 10 | > 10 | Cc1cc(C)nc(N2CCN(c3ccc(NC(=O)C(=O)c4c(-c5ccccc5)ccn4CC(N)=O)cc3)CC2)c1 [Example 75, 2-(1-Carbamoylmethyl-3-phenyl-1H-pyrrol-2-yl)-N-{4-[4-(4,6-dimethyl-pyridin-2-yl)-piperazin-1-yl]-phenyl}-2-oxo-acetamide] | 
11 | 1 to 10 (≈ 2.15 to 21.5 µM) | 1 to 10 (≈ 2.15 to 21.5 µM) | < 1 | < 1 | < 1 | < 1 | > 10 | > 10 | 1 to 10 (≈ 2.15 to 21.5 µM) | 1 to 10 (≈ 2.15 to 21.5 µM) | 1 to 10 (≈ 2.15 to 21.5 µM) | 1 to 10 (≈ 2.15 to 21.5 µM) | COCCn1c(C)cc(-c2ccccc2)c1C(=O)C(=O)Nc1ccc(N2CCOCC2)c(F)c1 [Example 126, N-(3-Fluoro-4-morpholin-4-yl-phenyl)-2-[1-(2-methoxy-ethyl)-5-methyl-3-phenyl-1H-pyrrol-2-yl]-2-oxo-acetamide] | 
12 | < 1 | < 1 | < 1 | < 1 | < 1 | < 1 | < 1 | < 1 | < 1 | < 1 | < 1 | < 1 | Cc1cc(C)nc(N2CCN(c3ccc(NC(=O)C(=O)c4c(-c5ccccc5)cc(C)n4C)cc3O)CC2)c1 [Example 22, 2-(1,5-Dimethyl-3-phenyl-1H-pyrrol-2-yl)-N-{4-[4-(4,6-dimethyl-pyridin-2-yl)-piperazin-1-yl]-3-hydroxy-phenyl}-2-oxo-acetamide] | 
13 | < 1 | < 1 | < 1 | < 1 | < 1 | < 1 | < 1 | < 1 | < 1 | < 1 | < 1 | < 1 | Cc1cc(C)nc(N2CCN(c3ccc(NC(=O)C(=O)c4c(C(C)C)cc(C)n4C)cc3)CC2)c1 [Example 14, N-{4-[4-(4,6-Dimethyl-pyridin-2-yl)-piperazin-1-yl]-phenyl}-2-(3-isopropyl-1,5-dimethyl-1H-pyrrol-2-yl)-2-oxo-acetamide] | 
